We go through two compounds from patent publication US20160244802A1, “Protein Demethylases Comprising a JMJC Domain” (The University of North Carolina at Chapel Hill, priority 2005, published 2016).

For assay [1], the system named is AR target genes PSA, NKX3.1 and TMPRSS22. The assay can be described thus: Quantitative RT-PCR of AR target genes in LNCaP cells. Particulars: 50 nM, 8 hours. It counts as cell-based. Here is the method:
(§1) Recombinant JMJD1A was mixed with in vitro translated […] AR in the absence or presence of R1881 (100 nM). After immunoprecipitation with anti-JHDM2A antibody, AR was detected by autoradiography. […] LNCaP cells were cultured in charcoal-stripped serum medium for three days and then treated without or with R1881 (50 nM) for 1 hour before being processed for ChIP analysis. […] LNCaP cells were transfected with a scramble (siCON), siJHDM2A or siLSD1 as indicated. Tubulin served as a loading control. […] The cells were treated as in FIG. 14B except the cells were collected for RNA isolation 8 hours after the R1881 treatment. […] The LNCaP cells were treated with siJHDM2A or siCON for three days and then 50 nM R1881 for 1 hour before processed for ChIP assays using antibodies as indicated.
For ChIP assay in LNCaP cells, the cells were cultured in charcoal-stripped serum medium for three days before treatment with R1881 (50 nM) for 1 hour. […]
To directly test and compare the role of JHDM2A and LSD1 in hormone-dependent transcriptional activation, we used siRNA to knockdown JHDM2A and LSD1 in LNCaP cells (FIG. 14C). We then evaluated the effects of JHDM2A or LSD1 knockdown on the hormone induced activation of three AR target genes, PSA, NKX3.1 and TMPRSS22, by quantitative RT-PCR. […]

For assay [2], the system named is PSA enhancer and NKX3.1 gene. The assay can be described thus: ChIP assay in LNCaP cells. It counts as cell-based. Particulars: 50 nM, 1 hour. Here is the method: as §1
For ChIP assay in LNCaP cells, the cells were cultured in charcoal-stripped serum medium for three days before treatment with R1881 (50 nM) for 1 hour. The ChIP assay was performed essentially as previously described (Yoon, et al. (2005) Mol. Cell Biol. 25:324-335). Primers for RT-PCR analysis of the PSA mRNA were 5′-GCCCACCCAGGAGCCAGCACT-3′ (SEQ ID NO:27) and 5′-GGCCCCCAGAATCACCCGAGCAG-3′ (SEQ ID NO:28).

For assay [3], the system named is modified histone H3 peptide substrates (H3K4 me3, me2, me1). The assay can be described thus: Histone demethylase assay with modified histone H3 peptide substrates, mass spectrometry. It counts as biochemical.

On to `C[C@]1(O)CC[C@H]2[C@@H]3CCC4=CC(=O)CCC4=C3C=C[C@@]21C` [R1881], for which the “transcription from AR target genes” value in assay [1] is recorded as “robustly activated transcription”. Besides, the “binding of the AR to the PSA enhancer” value in assay [2] is given as “strong binding”.

Consider “RBP2: Flag-tagged JmjC domain H3K4 demethylase expressed in SF9 cells by baculovirus, affinity purified”, for which the “removal of the me1 modification state” value in assay [3] (H3K4me1 peptide, in vitro) was “failed to catalyze removal”. For the same compound, the “demethylation of the modified substrate” value in assay [3] (H3K4me3 and me2 peptides, recombinant Flag-RBP2) was 80-90%.
